For data set [1], the target named is T1, Steryl-sulfatase (Homo sapiens) (UniProt P08842).
T1 sequence (whole entry): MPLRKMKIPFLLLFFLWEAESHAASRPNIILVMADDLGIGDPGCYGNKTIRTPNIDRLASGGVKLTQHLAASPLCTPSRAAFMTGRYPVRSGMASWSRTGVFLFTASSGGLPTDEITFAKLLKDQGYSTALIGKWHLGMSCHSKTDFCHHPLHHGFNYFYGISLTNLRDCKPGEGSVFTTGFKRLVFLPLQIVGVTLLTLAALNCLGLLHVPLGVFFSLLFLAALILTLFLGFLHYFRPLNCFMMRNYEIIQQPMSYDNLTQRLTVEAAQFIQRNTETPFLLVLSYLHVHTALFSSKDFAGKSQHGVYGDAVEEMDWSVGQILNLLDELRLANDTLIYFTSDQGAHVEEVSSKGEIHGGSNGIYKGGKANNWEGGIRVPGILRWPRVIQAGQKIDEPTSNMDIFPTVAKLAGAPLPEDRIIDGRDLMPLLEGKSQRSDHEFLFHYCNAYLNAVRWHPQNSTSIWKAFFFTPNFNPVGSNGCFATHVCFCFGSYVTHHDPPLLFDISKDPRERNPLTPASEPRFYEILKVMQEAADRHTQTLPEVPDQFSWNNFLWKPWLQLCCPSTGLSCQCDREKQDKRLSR
As to the kind of experiment: Inhibition of STS (unknown origin) expressed in HEK-293 cells assessed as transformation of [3H]-E1S into E1 at 0.1 uM by […]. Format: cell-based. Conditions: HEK293.

Data set [2] can be described thus: Lipophilicity, log P of the compound. The format is physicochemical. Conditions: octanol/water.
Data set [3] concerns the target T1, Steryl-sulfatase (Homo sapiens). Kind of data set: Inhibition of STS (unknown origin) expressed in HEK-293 cells assessed as transformation of [3H]-E1S into E1 at 1 uM by […]. Format: cell-based. Conditions: HEK293.
In data set [4] the test system is MCF7. Kind of data set: Estrogenic activity in human MCF7 cells assessed as cell proliferation at 0.01 uM by MTS assay relative to basal level. The format is ADME, cell-based. Conditions: mcf7, 0.01 µM. (Tetrazolium dyes change colour on reduction, which living cells bring about.)
Data set [5] in a line: Estrogenic activity in human Saos2 cells assessed as cell proliferation at 1 uM. Format: ADME, cell-based. Particulars: saos-2, 1 µM.
The subject of data set [6] is MCF7. Kind of data set: Estrogenic activity in human MCF7 cells assessed as cell proliferation at 1 uM by MTS assay relative to basal level. Conditions: mcf7, 1 µM. The format is ADME, cell-based.
Data set [7] relates to MCF7. As to the kind of experiment: Estrogenic activity in human MCF7 cells assessed as cell proliferation at 0.1 uM by MTS assay relative to basal level. Format: ADME, cell-based. Particulars: mcf7, 0.1 µM.
The nature of data set [8]: Estrogenic activity in human Saos2 cells assessed as increase in alkaline phosphatase activity at 1 nM. Conditions: saos-2, 0.001 µM. The format is ADME, cell-based.
Data set [9] deals with MCF7. Kind of data set: Estrogenic activity in human MCF7 cells assessed as cell proliferation at 0.1 nM by MTS assay relative to basal level. The format is ADME, cell-based. Conditions: mcf7, 0.0001 µM.

In the case of `CCN(Cc1ccccc1)c1ccc(C(=O)N2CCc3ccc(OS(N)(=O)=O)cc3C2)cc1`, the inhibition – broadly, how much of the control response was suppressed – in data set [1] is 66.9%; in data set [3] it was 83.6%. Moreover, the logP (as a rule, a log measure of how a compound divides between an organic and an aqueous phase) in data set [2] was 3.08.

For the molecule `CCCN(CCC)c1ccc(C(=O)N2CCc3ccc(OS(N)(=O)=O)cc3C2)cc1`, the inhibition turned out to be 36.6% in data set [1] and 84.7% in data set [3]. Further, in data set [2], the logP turned out to be 3.07.

For `NS(=O)(=O)Oc1ccc2c(c1)CN(C(=O)c1ccc(N3CCC(Cc4ccccc4)CC3)cc1)CC2`, the inhibition was 41.4% in [1] and 81.3% in [3]. The molecule further yielded a logP in data set [2] of 3.87.

Regarding `O=C(c1ccc(N2CCc3ccccc3C2)cc1)N1CCc2ccc(O)cc2C1`, the Activity in the data set with MCF7 [4] was 0%; in data set [5], “Toxic”; in the data set on MCF7 [6], 6.3%; in the data set with MCF7 [7], 1.7%; in data set [8], 133%.

For `C[C@]12CC[C@@H]3c4ccc(O)cc4CC[C@H]3[C@@H]1CC[C@@H]2O` [ESTRADIOL], the Activity in [5] amounted to 144%; in data set [8], 148%; in the data set with MCF7 [9], 75.6%.

The values above are taken from ChEMBL document CHEMBL3132826, “Investigation of a tetrahydroisoquinoline scaffold as dual-action steroid sulfatase inhibitors generated by parallel solid-phase synthesis” (Medchemcomm, 2013).
